According to ChEMBL document CHEMBL1145390, “Synthesis and preliminary biological characterization of new semisynthetic derivatives of ramoplanin” (J Med Chem, 2007):
Converted amounts (≈) assume the structure as drawn.

Key:
[1] = tested on: Streptococcus pyogenes; experiment: Antibacterial activity against Streptococcus pyogenes C203 after 24 hrs by broth microdilution method; format: functional; conditions: C203, 24 h
[2] = tested on: Staphylococcus aureus; experiment: Antibacterial activity against vancomycin-intermediate resistant Staphylococcus aureus clinical isolate after 24 hrs by broth microdilution method; format: functional
[3] = tested on: Staphylococcus aureus; experiment: Antibacterial activity against methicillin-resistant Staphylococcus aureus clinical isolate after 24 hrs by broth microdilution method; format: functional
[4] = tested on: Enterococcus faecium; experiment: Antibacterial activity against Enterococcus faecium after 24 hrs by broth microdilution method; format: functional
[5] = tested on: Staphylococcus aureus; experiment: Antibacterial activity against methicillin-resistant and vancomycin-intermediate resistant Staphylococcus aureus clinical isolate after 24 hrs by broth microdilution method; format: functional
[6] = tested on: Candida albicans; experiment: Antifungal activity against Candida albicans SKF-2270 after 24 hrs by broth microdilution method; format: functional
[7] = tested on: Enterococcus faecium; experiment: Antibacterial activity against vancomycin A-resistant Enterococcus faecium clinical isolate after 24 hrs by broth microdilution method; format: functional
[8] = tested on: Escherichia coli; experiment: Antibacterial activity against Escherichia coli SKF-12140 after 24 hrs by broth microdilution method; format: functional
[9] = Toxicity assessed as hemolysis in erythrocytes at 90 mg/L; format: cell-based, Erythrocyte; conditions: human; for hemolysis at 90 mg/L: erythrocytes, read-out: Activity; for Activity: erythrocyte
[10] = tested on: Enterococcus faecalis; experiment: Antibacterial activity against vancomycin A-resistant Enterococcus faecalis after 24 hrs by broth microdilution method; format: functional
[11] = Toxicity assessed as hemolysis in erythrocytes at 180 mg/L; format: cell-based, Erythrocyte; conditions: human; for hemolysis at 180 mg/L: erythrocytes, read-out: Activity; for Activity: erythrocyte
[12] = tested on: Staphylococcus aureus; experiment: Antibacterial activity against Staphylococcus aureus Smith after 24 hrs by broth microdilution method; format: functional
[13] = tested on: Enterococcus faecalis; experiment: Antibacterial activity against Enterococcus faecalis after 24 hrs by broth microdilution method; format: functional

SMILES	MIC ([1]; read-out: MIC)	MIC [2]	MIC ([3]; read-out: MIC)	MIC ([4]; read-out: MIC)	MIC ([5]; read-out: MIC)	MIC ([6]; read-out: MIC)	MIC ([7]; read-out: MIC)	MIC ([8]; read-out: MIC)	hemolysis at 90 mg/L [9]	MIC ([10]; read-out: MIC)	hemolysis at 180 mg/L [11]	MIC ([12]; read-out: MIC)	MIC ([13]; read-out: MIC)	other results
CCCCCCCCc1ccc(C(=O)N[C@@H](CC(N)=O)C(=O)NC[C@@H]2C(=O)N[C@H](c3ccc(O)cc3)C(=O)N[C@H](CCCN)C(=O)N[C@H](C(C)C)C(=O)N[C@@H](c3ccc(O)cc3)C(=O)N[C@H](c3ccc(O)cc3)C(=O)N[C@@H]([C@@H](C)O)C(=O)N[C@@H](Cc3ccccc3)C(=O)N[C@H](CCCN)C(=O)N[C@@H](c3ccc(O[C@H]4O[C@H](CO)[C@@H](O)[C@H](O)[C@@H]4O[C@H]4O[C@H](CO)[C@@H](O)[C@H](O)[C@@H]4O)cc3)C(=O)N[C@H]([C@@H](C)O)C(=O)N[C@@H](c3ccc(O)cc3)C(=O)NCC(=O)N[C@@H](CC(C)C)C(=O)N[C@H](C)C(=O)N[C@@H](c3ccc(O)c(Cl)c3)C(=O)O[C@@H]2C(N)=O)cc1	2 µg/mL (≈ 0.756 µM)	16 µg/mL (≈ 6.05 µM)	8 µg/mL (≈ 3.02 µM)	4 µg/mL (≈ 1.51 µM)	16 µg/mL (≈ 6.05 µM)	> 32 µg/mL	4 µg/mL (≈ 1.51 µM)	> 32 µg/mL	95%	4 µg/mL (≈ 1.51 µM)	72%	8 µg/mL (≈ 3.02 µM)	4 µg/mL (≈ 1.51 µM)	–
CCCCCC(=O)N[C@@H](CC(N)=O)C(=O)NC[C@@H]1C(=O)N[C@H](c2ccc(O)cc2)C(=O)N[C@H](CCCN)C(=O)N[C@H](C(C)C)C(=O)N[C@@H](c2ccc(O)cc2)C(=O)N[C@H](c2ccc(O)cc2)C(=O)N[C@@H]([C@@H](C)O)C(=O)N[C@@H](Cc2ccccc2)C(=O)N[C@H](CCCN)C(=O)N[C@@H](c2ccc(O[C@H]3O[C@H](CO)[C@@H](O)[C@H](O)[C@@H]3O[C@H]3O[C@H](CO)[C@@H](O)[C@H](O)[C@@H]3O)cc2)C(=O)N[C@H]([C@@H](C)O)C(=O)N[C@@H](c2ccc(O)cc2)C(=O)NCC(=O)N[C@@H](CC(C)C)C(=O)N[C@H](C)C(=O)NC(c2ccc(O)c(Cl)c2)C(=O)O[C@@H]1C(N)=O (some centres undefined)	0.125 µg/mL (≈ 0.0494 µM)	16 µg/mL (≈ 6.33 µM)	4 µg/mL (≈ 1.58 µM)	4 µg/mL (≈ 1.58 µM)	32 µg/mL (≈ 12.7 µM)	> 32 µg/mL	4 µg/mL (≈ 1.58 µM)	> 32 µg/mL	0%	2 µg/mL (≈ 0.791 µM)	8%	4 µg/mL (≈ 1.58 µM)	2 µg/mL (≈ 0.791 µM)	–
CC(C)C[C@@H]1NC(=O)CNC(=O)[C@H](c2ccc(O)cc2)NC(=O)[C@@H]([C@@H](C)O)NC(=O)[C@H](c2ccc(O[C@H]3O[C@H](CO)[C@@H](O)[C@H](O)[C@@H]3O[C@H]3O[C@H](CO)[C@@H](O)[C@H](O)[C@@H]3O)cc2)NC(=O)[C@@H](CCCN)NC(=O)[C@H](Cc2ccccc2)NC(=O)[C@H]([C@@H](C)O)NC(=O)[C@@H](c2ccc(O)cc2)NC(=O)[C@H](c2ccc(O)cc2)NC(=O)[C@@H](C(C)C)NC(=O)[C@@H](CCCN)NC(=O)[C@@H](c2ccc(O)cc2)NC(=O)[C@@H](CNC(=O)[C@H](CC(N)=O)NC(=O)c2cccc3ccccc23)[C@@H](C(N)=O)OC(=O)[C@H](c2ccc(O)c(Cl)c2)NC(=O)[C@@H](C)NC1=O	≤ 0.03 µg/mL	8 µg/mL (≈ 3.1 µM)	2 µg/mL (≈ 0.774 µM)	1 µg/mL (≈ 0.387 µM)	8 µg/mL (≈ 3.1 µM)	> 32 µg/mL	1 µg/mL (≈ 0.387 µM)	> 32 µg/mL	14%	0.5 µg/mL (≈ 0.193 µM)	25%	1 µg/mL (≈ 0.387 µM)	0.5 µg/mL (≈ 0.193 µM)	–
CC(C)C[C@@H]1NC(=O)CNC(=O)[C@H](c2ccc(O)cc2)NC(=O)[C@@H]([C@@H](C)O)NC(=O)[C@H](c2ccc(O[C@H]3O[C@H](CO)[C@@H](O)[C@H](O)[C@@H]3O[C@H]3O[C@H](CO)[C@@H](O)[C@H](O)[C@@H]3O)cc2)NC(=O)[C@@H](CCCN)NC(=O)[C@H](Cc2ccccc2)NC(=O)[C@H]([C@@H](C)O)NC(=O)[C@@H](c2ccc(O)cc2)NC(=O)[C@H](c2ccc(O)cc2)NC(=O)[C@@H](C(C)C)NC(=O)[C@@H](CCCN)NC(=O)[C@@H](c2ccc(O)cc2)NC(=O)[C@@H](CNC(=O)[C@H](CC(N)=O)NC(=O)Cc2cccc3ccccc23)[C@@H](C(N)=O)OC(=O)[C@H](c2ccc(O)c(Cl)c2)NC(=O)[C@@H](C)NC1=O	–	0.0005 µg/mL (≈ 0.000192 µM)	–	–	–	–	–	–	–	–	–	–	–	MIC [1]: ≤ 0.03 µg/mL; MIC [3]: 0.125 µg/mL (≈ 0.0481 µM); MIC [4]: 0.25 µg/mL (≈ 0.0962 µM); MIC [5]: 1 µg/mL (≈ 0.385 µM); MIC [6]: > 32 µg/mL; MIC [7]: 0.25 µg/mL (≈ 0.0962 µM); MIC [8]: > 32 µg/mL; Activity [9]: 15%; MIC [10]: 0.125 µg/mL (≈ 0.0481 µM); Activity [11]: 28%; MIC [12]: 0.25 µg/mL (≈ 0.0962 µM); MIC [13]: 0.125 µg/mL (≈ 0.0481 µM)
CCCCCCCCC(=O)N[C@@H](CC(N)=O)C(=O)NC[C@@H]1C(=O)N[C@H](c2ccc(O)cc2)C(=O)N[C@H](CCCN)C(=O)N[C@H](C(C)C)C(=O)N[C@@H](c2ccc(O)cc2)C(=O)N[C@H](c2ccc(O)cc2)C(=O)N[C@@H]([C@@H](C)O)C(=O)N[C@@H](Cc2ccccc2)C(=O)N[C@H](CCCN)C(=O)N[C@@H](c2ccc(O[C@H]3O[C@H](CO)[C@@H](O)[C@H](O)[C@@H]3O[C@H]3O[C@H](CO)[C@@H](O)[C@H](O)[C@@H]3O)cc2)C(=O)N[C@H]([C@@H](C)O)C(=O)N[C@@H](c2ccc(O)cc2)C(=O)NCC(=O)N[C@@H](CC(C)C)C(=O)N[C@H](C)C(=O)N[C@@H](c2ccc(O)c(Cl)c2)C(=O)O[C@@H]1C(N)=O	0.125 µg/mL (≈ 0.0486 µM)	4 µg/mL (≈ 1.56 µM)	1 µg/mL (≈ 0.389 µM)	0.125 µg/mL (≈ 0.0486 µM)	8 µg/mL (≈ 3.11 µM)	> 32 µg/mL	< 0.03 µg/mL	> 32 µg/mL	0%	0.06 µg/mL (≈ 0.0233 µM)	5%	0.25 µg/mL (≈ 0.0973 µM)	0.06 µg/mL (≈ 0.0233 µM)	–
CCCCCCCCCC(=O)N[C@@H](CC(N)=O)C(=O)NC[C@@H]1C(=O)N[C@H](c2ccc(O)cc2)C(=O)N[C@H](CCCN)C(=O)N[C@H](C(C)C)C(=O)N[C@@H](c2ccc(O)cc2)C(=O)N[C@H](c2ccc(O)cc2)C(=O)N[C@@H]([C@@H](C)O)C(=O)N[C@@H](Cc2ccccc2)C(=O)N[C@H](CCCN)C(=O)N[C@@H](c2ccc(O[C@H]3O[C@H](CO)[C@@H](O)[C@H](O)[C@@H]3O[C@H]3O[C@H](CO)[C@@H](O)[C@H](O)[C@@H]3O)cc2)C(=O)N[C@H]([C@@H](C)O)C(=O)N[C@@H](c2ccc(O)cc2)C(=O)NCC(=O)N[C@@H](CC(C)C)C(=O)N[C@H](C)C(=O)N[C@@H](c2ccc(O)c(Cl)c2)C(=O)O[C@@H]1C(N)=O	0.25 µg/mL (≈ 0.0967 µM)	4 µg/mL (≈ 1.55 µM)	2 µg/mL (≈ 0.774 µM)	0.25 µg/mL (≈ 0.0967 µM)	8 µg/mL (≈ 3.1 µM)	> 32 µg/mL	0.06 µg/mL (≈ 0.0232 µM)	> 32 µg/mL	0%	0.06 µg/mL (≈ 0.0232 µM)	41%	2 µg/mL (≈ 0.774 µM)	0.125 µg/mL (≈ 0.0484 µM)	–
CC(C)C[C@@H]1NC(=O)CNC(=O)[C@H](c2ccc(O)cc2)NC(=O)[C@@H]([C@@H](C)O)NC(=O)[C@H](c2ccc(O[C@H]3O[C@H](CO)[C@@H](O)[C@H](O)[C@@H]3O[C@H]3O[C@H](CO)[C@@H](O)[C@H](O)[C@@H]3O)cc2)NC(=O)[C@@H](CCCN)NC(=O)[C@H](Cc2ccccc2)NC(=O)[C@H]([C@@H](C)O)NC(=O)[C@@H](c2ccc(O)cc2)NC(=O)[C@H](c2ccc(O)cc2)NC(=O)[C@@H](C(C)C)NC(=O)[C@@H](CCCN)NC(=O)[C@@H](c2ccc(O)cc2)NC(=O)[C@@H](CNC(=O)[C@H](CC(N)=O)NC(=O)COc2ccccc2)[C@@H](C(N)=O)OC(=O)[C@H](c2ccc(O)c(Cl)c2)NC(=O)[C@@H](C)NC1=O	0.06 µg/mL (≈ 0.0234 µM)	16 µg/mL (≈ 6.24 µM)	8 µg/mL (≈ 3.12 µM)	4 µg/mL (≈ 1.56 µM)	32 µg/mL (≈ 12.5 µM)	> 32 µg/mL	4 µg/mL (≈ 1.56 µM)	> 32 µg/mL	0%	4 µg/mL (≈ 1.56 µM)	0%	4 µg/mL (≈ 1.56 µM)	8 µg/mL (≈ 3.12 µM)	–
CC(C)C[C@@H]1NC(=O)CNC(=O)[C@H](c2ccc(O)cc2)NC(=O)[C@@H]([C@@H](C)O)NC(=O)[C@H](c2ccc(O[C@H]3O[C@H](CO)[C@@H](O)[C@H](O)[C@@H]3O[C@H]3O[C@H](CO)[C@@H](O)[C@H](O)[C@@H]3O)cc2)NC(=O)[C@@H](CCCN)NC(=O)[C@H](Cc2ccccc2)NC(=O)[C@H]([C@@H](C)O)NC(=O)[C@@H](c2ccc(O)cc2)NC(=O)[C@H](c2ccc(O)cc2)NC(=O)[C@@H](C(C)C)NC(=O)[C@@H](CCCN)NC(=O)[C@@H](c2ccc(O)cc2)NC(=O)[C@@H](CNC(=O)[C@H](CC(N)=O)NC(=O)Cc2ccccc2)[C@@H](C(N)=O)OC(=O)[C@H](c2ccc(O)c(Cl)c2)NC(=O)[C@@H](C)NC1=O	–	0.008 µg/mL (≈ 0.00314 µM)	0.002 µg/mL (≈ 0.000785 µM)	0.008 µg/mL (≈ 0.00314 µM)	–	–	0.004 µg/mL (≈ 0.00157 µM)	–	–	0.004 µg/mL (≈ 0.00157 µM)	–	0.002 µg/mL (≈ 0.000785 µM)	0.004 µg/mL (≈ 0.00157 µM)	MIC [1]: 0.06 µg/mL (≈ 0.0235 µM); MIC [5]: 16 µg/mL (≈ 6.28 µM); MIC [6]: > 32 µg/mL; MIC [8]: > 32 µg/mL; Activity [9]: 0%; Activity [11]: 0%
